PMC12786078, “Identification of Novel JAK2 Inhibitors from Amino Derivatives of Epoxyalantolactone: In Silico and In Vitro Studies” (International Journal of Molecular Sciences, 2025)
Values joined by “and” are separate entries in the source; they are usually repeats but may differ in a detail not shown here. Equal entries are not always repeated. Where two headings read alike, the source gives them in different places.

How the values were obtained:
HeLa cells [1] = test: DCFH2-DA intracellular ROS assay; type: cell-based, human
Experimental: After 24 h, the cells were incubated with 100 µL of 10 µM DCFH2-DA (Sigma-Aldrich) diluted in Hank’s Balanced Salt Solution (HBSS) at 37 °C for 30 min in the dark. […] At the end of the treatment, cells were washed twice with cold phosphate-buffered saline (PBS), and 200 µL of 1% Triton X-100 in 0.3 M NaOH was added to lyse the cells.

L929 fibroblasts = test: MTT cytotoxicity assay; details: read-out: IC50 L929
Experimental: (§1) Human cervical adenocarcinoma (HeLa), hepatocellular carcinoma (HepG2) and mouse fibroblast (L929) cells were cultured in Dulbecco’s Modified Eagle’s Medium (DMEM) containing 10% fetal bovine serum (FBS), 100 U/mL penicillin G, and 100 μg/mL streptomycin. Human neuroblastoma (SH-SY5Y) cells were maintained in DMEM/F-12 medium with the same supplements. All cultures were incubated at 37 °C in a humidified atmosphere of 5% CO2.
(§2) Cells were seeded in 96-well plates at a density of 5 × 10^3 cells per well in 100 µL of complete DMEM and incubated overnight at 37 °C in a humidified incubator with 5% CO2. […] After 48 h of treatment, 100 µL of MTT solution (0.5 mg/mL in serum-free medium) was added to each well and incubated for an additional 3 h at 37 °C. The supernatant was then removed, and 100 µL of DMSO was added to dissolve the resulting formazan crystals. Absorbance was measured at 570 nm using an EnSight Multimode Microplate Reader (PerkinElmer, Waltham, MA, USA). IC50 values were calculated using nonlinear regression analysis in GraphPad Prism version 9.

[2] = Annexin V-FITC/PI apoptosis detection by flow cytometry; details: human, HeLa cells
Experimental: (§3) HeLa cells were seeded in 6-well plates at a density of 3 × 10^5 cells per well in 2 mL of complete DMEM and allowed to adhere overnight. […] Following treatment, cells were harvested by trypsinization and washed twice with 1 mL of cold phosphate-buffered saline (PBS) to remove non-adherent and dead cells. The cell pellets were resuspended in 100 µL of binding buffer and stained with 5 µL of Annexin V-FITC and 5 µL of propidium iodide (PI, 0.05 µg/mL). The staining was performed in the dark at room temperature for 15 min. Apoptotic cell death was quantified by flow cytometry, with early and late apoptotic populations distinguished based on Annexin V-FITC and PI fluorescence signals.

[3] = tested on: SH-SY5Y neuroblastoma cells; test: MTT cytotoxicity assay; details: 48 h, read-out: IC50 SH-SY5Y
Experimental: as §1, §2

HEK-293T cells = test: MTT cytotoxicity assay; details: read-out: IC50 HEK-293T
Experimental: as §2

HepG2 cells = test: MTT cytotoxicity assay; details: read-out: IC50 HepG2
Experimental: as §1, §2

HeLa cells [4] = test: MTT cytotoxicity assay; details: 48 h
Experimental: as §1, §2

JAK2 = molecular target: T1, JAK2 (Homo sapiens, UniProt O60674); test: JAK2 kinase assay (ADP-Glo); type: biochemical; details: 5 μM ATP, mean ± SEM, read-out: IC50, JAK2 kinase inhibition
T1 construct: purchased Sigma-Aldrich SRP0171
T1 sequence (O60674 808-1132 limits assumed): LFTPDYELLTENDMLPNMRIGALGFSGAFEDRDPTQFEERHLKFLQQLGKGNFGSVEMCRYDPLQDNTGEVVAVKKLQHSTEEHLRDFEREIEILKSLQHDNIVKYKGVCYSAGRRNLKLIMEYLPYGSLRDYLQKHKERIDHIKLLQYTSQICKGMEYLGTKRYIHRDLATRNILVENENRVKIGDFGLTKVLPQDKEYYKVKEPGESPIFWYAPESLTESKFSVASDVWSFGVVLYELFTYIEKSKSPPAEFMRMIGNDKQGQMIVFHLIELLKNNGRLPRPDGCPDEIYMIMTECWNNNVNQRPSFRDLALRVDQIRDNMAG
Experimental: For each reaction, 2.5 ng/μL of JAK2 enzyme (SRP0171, Sigma-Aldrich) was combined with 1 μM of the test compounds or known drugs, 5 μM ATP, and 2 ng/μL of poly(glu·tyr) substrate in a reaction buffer containing 40 mM Tris-HCl (pH 7.5), 20 mM MgCl2, and 0.1 mg/mL BSA. The reaction mixture was incubated at room temperature for 1 h. After incubation, 5 μL of the ADP-Glo reagent was added to each reaction, followed by an additional 40 min incubation. Next, 10 μL of the kinase detection reagent was added, and the reactions were incubated at room temperature for 30 min to convert ADP to ATP. Luminescence, reflecting ATP levels, was measured using an EnSight Multimode Microplate Reader. […] All assays were performed in triplicate, and the resulting data were presented as the relative inhibition (%) of inhibitors compared to the control without any inhibitor, as shown in Equation (1).(1) %Relative inhibition=[positive−negative−sample−negative]/(positive−negative)×100

HeLa cells [5] = test: Annexin V-FITC/PI apoptosis detection by flow cytometry
Experimental: as §3

[6] = HeLa, 48 h, at IC50 (SL10 8 µM, SL35 6 µM, ruxolitinib 25 µM)
[7] = IC50 concentration of the compound

Row | Structure (SMILES) | IC50 (HeLa cells [4]; read-out: IC50 HeLa, MTT) [µM] | IC50 (L929 fibroblasts; MTT, 48 h) [µM] | IC50 ([3]; MTT) | IC50 (JAK2) | IC50 (HEK-293T cells; MTT) [µM] | IC50 (HepG2 cells; MTT, 48 h) [µM] | also measured
1 | OO [H2O2, hydrogen peroxide, reference compound] |  |  |  |  |  |  | intracellular ROS level relative to control (HeLa cells [1]; 200 µM): approximately 1.7 fold
2 | N#CC[C@H](C1CCCC1)n1cc(-c2ncnc3[nH]ccc23)cn1 [Ruxolitinib, reference compound] | 25 ± 1.25 |  |  |  |  |  | IC50 (L929 fibroblasts; Mus musculus, L929, 48 h): 80.4 ± 2.33 µM; viability at 48 h, 25 µM [2]: 63.5 ± 2.17%; IC50 ([3]; Homo sapiens, SH-SY5Y): 68.63 ± 0.19 µM; IC50 (HEK-293T cells; Homo sapiens, HEK-293T): 89.7 ± 1.98 µM; IC50 (HepG2 cells; Homo sapiens, HepG2, 48 h): 34.6 ± 2.56 µM; IC50 (HeLa cells [4]; Homo sapiens, HeLa, read-out: IC50 HeLa, MTT, 48 h): 25 ± 1.3 µM
3 | COc1ccc(CN2CC3C(=O)OC4CC5(C)CCCC(C)C5(O)C2C43)cc1OC (stereo not drawn) [SL8] | 88.2 | 92.6 ± 2.87 | 59.6 ± 2.84 µM | 87.1 ± 2.6 nM | 90.7 ± 1.61 | 42.6 ± 2.14 | 
4 | CC1CCCC2(C)CC3OC(=O)C(CN4CCN(c5ccccc5)CC4)C3C3OC132 (stereo not drawn) [SL10] | 8.47 ± 0.74 | 25.4 | 23.1 µM | 12.7 nM | 14.5 ± 0.74 | 19.7 | early apoptosis (HeLa cells [5]; [6]): 56.39 ± 2.21%; late apoptosis (HeLa cells [5]; [6]): 11.61 ± 0.99%; viable cells (HeLa cells [5]; [6]): 31.30 ± 2.21%; intracellular ROS level relative to control (HeLa cells [1]; [7]): approximately 1.4 fold
5 | CC1CCCC2(C)CC3OC(=O)C(CN4CCN(c5ccc(F)cc5)CC4)C3C3OC132 (stereo not drawn) [SL14] | 13.2 | 52.8 ± 1.92 | 35.8 ± 2.13 µM | 57.6 ± 1.2 nM | 50.9 ± 3.3 | 27.5 ± 0.73 | 
6 | Cc1cccc(N2CCN(CC3C(=O)OC4CC5(C)CCCC(C)C56OC6C43)CC2)c1 (stereo not drawn) [SL31] | 13.7 | 62.8 ± 3.39 | 24.2 ± 1.69 µM | 89.3 ± 1.5 nM | 24.5 ± 1.12 | 19.62 ± 0.05 | 
7 | CC1CCCC2(C)CC3OC(=O)C4CN(CCc5c[nH]c6ccccc56)C(C34)C12O (stereo not drawn) [SL33] | 33.8 ± 2.8 | 40.5 ± 2.22 | 58.6 ± 0.71 µM | 79.1 ± 1.8 nM | 29.3 ± 0.96 | 45.28 ± 0.41 | IC50 (HeLa cells [4]; read-out: IC50 HeLa, MTT, listed as SLL33): 33.8 ± 2.78 µM
8 | CC1CCCC2(C)CC3OC(=O)C(CN4CCN(c5ncccn5)CC4)C3C3OC132 (stereo not drawn) [SL35] | 6.07 ± 0.11 | 23.1 | 19.2 µM and 19.3 µM | 21.7 nM and 21.6 nM | 14.6 ± 1.05 | 13.3 | viable cells (HeLa cells [5]): 66.19 ± 1.51%; early apoptosis (HeLa cells [5]; [6]): 26.30 ± 1.69%; late apoptosis (HeLa cells [5]; [6]): 5.20 ± 0.34%; intracellular ROS level relative to control (HeLa cells [1]; [7]): around 2.0 fold
9 | O=C1O[C@H]([C@@H](O)CO)C(O)=C1O [Vitamin C, L-ascorbic acid, reference compound] |  |  |  |  |  |  | intracellular ROS level relative to control (HeLa cells [1]; 200 µM): about 0.8 fold
